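Cells were grown in 96-well plates and exposed to each compound for 48 hours at five concentrations; endpoints were interpolated linearly between bracketing concentrations, or set to the highest concentration if not reached. TGI: total growth inhibition.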
Experiments:
Experiment in all cases: NCI anticancer screen, dose series, 48 h
T-47D breast = tested on: T-47D breast
UACC-62 melanoma = tested on: UACC-62 melanoma
HCT-116 colon = tested on: HCT-116 colon
OVCAR-3 ovarian = tested on: OVCAR-3 ovarian
MDA-MB-231 breast = tested on: MDA-MB-231 breast
ACHN renal = tested on: ACHN renal
HOP-92 NSCLC = tested on: HOP-92 NSCLC
IGROV1 ovarian = tested on: IGROV1 ovarian
UACC-257 melanoma = tested on: UACC-257 melanoma
SK-MEL-5 melanoma = tested on: SK-MEL-5 melanoma
MCF7 breast = tested on: MCF7 breast
786-0 renal = tested on: 786-0 renal
SF-539 CNS = tested on: SF-539 CNS
NCI-H522 lung = tested on: NCI-H522 lung
A549 NSCLC = tested on: A549 NSCLC
NCI-H226 lung = tested on: NCI-H226 lung
MOLT-4 leukemia = tested on: MOLT-4 leukemia
CAKI-1 renal = tested on: CAKI-1 renal
A498 renal = tested on: A498 renal
RXF 393 renal = tested on: RXF 393 renal

Row | Structure (SMILES) | TGI (T-47D breast) | TGI (UACC-62 melanoma) | TGI (HCT-116 colon) | TGI (OVCAR-3 ovarian) | TGI (MDA-MB-231 breast) | TGI (ACHN renal) | TGI (HOP-92 NSCLC) | TGI (IGROV1 ovarian) | TGI (UACC-257 melanoma) | TGI (SK-MEL-5 melanoma) | TGI (MCF7 breast) | TGI (786-0 renal) | TGI (SF-539 CNS) | TGI (NCI-H522 lung) | TGI (A549 NSCLC) | TGI (NCI-H226 lung) | TGI (MOLT-4 leukemia) | TGI (CAKI-1 renal) | TGI (A498 renal) | TGI (RXF 393 renal)
1 | CC(=O)Nc1ccc(C(=O)NN2C(=O)C(Cl)C2c2cc(Br)ccc2O)cc1 (centres undefined) | > 100 µM | > 100 µM | > 100 µM | > 100 µM | > 100 µM | > 100 µM | > 100 µM | > 100 µM | > 100 µM | > 100 µM | > 100 µM | > 100 µM | > 91.9 µM | > 100 µM | > 100 µM | 36.1 µM | > 100 µM | – | – | –
2 | CCOC(=O)C(Cc1ccccc1)NC(=O)c1ccc(N=NN(C)C)cc1 (centres undefined) | – | > 100 µM | > 100 µM | > 100 µM | – | > 100 µM | – | > 100 µM | > 100 µM | > 100 µM | – | > 100 µM | > 100 µM | > 100 µM | > 100 µM | > 100 µM | > 100 µM | > 100 µM | > 100 µM | –
3 | C[C@]12CCC(=O)C=C1CC[C@@H]1[C@@H]2CC[C@]2(C)C(=O)[C@H](n3ccnc3)C[C@@H]12 | – | > 100 µM | > 100 µM | – | > 100 µM | > 100 µM | > 100 µM | > 100 µM | > 100 µM | > 100 µM | > 100 µM | > 100 µM | > 100 µM | > 100 µM | > 100 µM | > 100 µM | > 100 µM | > 100 µM | > 100 µM | > 100 µM
4 | OCC1OC(Oc2cc(O)cc(/C=C\c3ccc(O)cc3)c2)C(O)C(O)C1O (centres undefined) | – | > 100 µM | > 100 µM | > 100 µM | > 100 µM | > 100 µM | > 100 µM | > 100 µM | > 100 µM | > 100 µM | > 100 µM | > 100 µM | > 100 µM | > 100 µM | > 100 µM | > 100 µM | > 100 µM | > 100 µM | > 100 µM | > 100 µM
5 | O=C(C#CP(=O)(O)c1ccccc1)c1ccccc1 | > 100 µM | > 100 µM | > 100 µM | > 100 µM | – | > 100 µM | > 100 µM | > 100 µM | > 100 µM | > 100 µM | > 100 µM | > 100 µM | > 100 µM | > 100 µM | > 100 µM | – | – | > 100 µM | > 100 µM | –
6 | CCOP(=O)(OCC)C1CC(O)CN1OC(=O)C(C)(C)C (centres undefined) | – | > 100 µM | > 100 µM | > 100 µM | > 100 µM | > 100 µM | – | > 100 µM | > 100 µM | > 100 µM | > 100 µM | > 100 µM | – | – | > 100 µM | > 100 µM | > 100 µM | – | > 100 µM | –
7 | COc1ccc(-c2c(C#N)c(-c3ccc(C)cc3)n(NS(=O)(=O)c3ccccc3)c(=O)c2C#N)cc1 | – | > 100 µM | > 100 µM | > 100 µM | > 100 µM | > 100 µM | > 100 µM | > 100 µM | > 100 µM | 44.8 µM | > 100 µM | > 100 µM | > 100 µM | > 100 µM | > 100 µM | > 100 µM | 60.4 µM | > 100 µM | > 100 µM | > 100 µM
8 | CCOC(=O)C(NC(=O)c1ccccc1)(Nc1ccc(S(=O)(=O)Nc2nc(C)cc(C)n2)cc1)C(F)(F)F (centres undefined) | > 100 µM | > 100 µM | > 100 µM | > 100 µM | > 100 µM | > 100 µM | > 100 µM | > 100 µM | > 100 µM | > 100 µM | > 100 µM | > 100 µM | > 100 µM | – | > 100 µM | > 100 µM | > 100 µM | > 100 µM | – | > 100 µM
9 | C=CCNC(=S)N1c2ccccc2NC(=O)CC1C (centres undefined) | – | > 100 µM | > 100 µM | > 100 µM | – | > 100 µM | – | > 100 µM | – | > 100 µM | – | > 100 µM | > 100 µM | > 100 µM | > 100 µM | > 100 µM | > 100 µM | – | – | > 100 µM
10 | COc1ccccc1C(C1=C(O)COC1=O)c1cc2c(cc1OC(C)=O)OCO2 (centres undefined) | – | > 100 µM | > 100 µM | > 100 µM | > 100 µM | > 100 µM | – | > 100 µM | > 100 µM | > 100 µM | > 100 µM | > 100 µM | > 100 µM | – | > 100 µM | > 100 µM | > 100 µM | > 100 µM | > 100 µM | > 100 µM
11 | OCC1NCC(O)C(O)C1O (centres undefined) | – | > 100 µM | > 100 µM | > 100 µM | – | > 100 µM | > 100 µM | > 100 µM | > 100 µM | > 100 µM | > 100 µM | > 100 µM | > 100 µM | > 100 µM | > 100 µM | – | > 100 µM | > 100 µM | > 100 µM | > 100 µM
12 | COC1C=CC(C(=O)[N+]2=Cc3[nH]c4ccccc4c3CC2)O1 (centres undefined) | – | > 100 µM | > 100 µM | > 100 µM | – | > 100 µM | > 100 µM | > 100 µM | > 100 µM | > 100 µM | – | > 100 µM | > 100 µM | > 100 µM | > 100 µM | > 100 µM | > 100 µM | > 100 µM | > 100 µM | > 100 µM
13 | O=C(NC1CCC(=O)N1C(=O)OCc1ccccc1)OCc1ccccc1 (centres undefined) | – | > 100 µM | – | > 100 µM | > 100 µM | > 100 µM | > 100 µM | > 100 µM | > 100 µM | > 100 µM | > 100 µM | > 100 µM | > 100 µM | > 100 µM | > 100 µM | > 100 µM | > 100 µM | > 100 µM | – | > 100 µM
14 | CN(c1ccccc1)S(=O)(=O)c1ccccc1[N+](=O)[O-] | > 100 µM | > 100 µM | > 100 µM | > 100 µM | > 100 µM | > 100 µM | – | > 100 µM | > 100 µM | – | > 100 µM | > 100 µM | > 100 µM | > 100 µM | > 100 µM | > 100 µM | > 100 µM | > 100 µM | – | > 100 µM
